Literature values as cited in US10632107B2, “Crystalline forms of benzoquinoline inhibitors of vesicular monoamine transporter 2” (Apotex Inc., priority 2018, dated 2020).
Where two headings read alike, the source gives them in different places.

In the case of COc1cc2c(cc1OC)C1CC(=O)C(CC(C)C)CN1CC2 (racemic) [Tetrabenazine, rel-(3R,11bR)-1,3,4,6,7,11b-hexahydro-9,10-dimethoxy-3-(2-methylpropyl)-2H-benzo[a]quinolizin-2-one], the solubility (low pH of the stomach) is listed as “slight solubility” and the solubility (pH values of greater than 4) is listed as “practically insoluble”.
